# Test results as given in patent publication US9695155B2, “Herbicidal substituted pyrimidinyloxy benzene compounds” (E. I. DU PONT DE NEMOURS AND COMPANY, priority 2013, dated 2017).
# Key:
# giant foxtail = test: Test C preemergence; assay type: in vivo, Setaria faberii; conditions: Setaria faberi, pre-emergence
# Outline: (§1)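 Visual ratings on a 0–100 scale (100 = complete control) were made versus untreated controls after 13–15 greenhouse days. Chemicals in a surfactant-containing non-phytotoxic solvent were applied either preemergence to seeds in loam–sand soil or postemergence to 1- to 4-leaf plants 2–18 cm tall.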
# oilseed rape = test: Test C postemergence; assay type: in vivo, Brassica napus
# Outline: as §1
# ragweed [1] = test: Test C preemergence; assay type: in vivo, Ambrosia elatior; conditions: Ambrosia artemisiifolia, pre-emergence
# Outline: as §1
# soybean = test: Test C preemergence; assay type: in vivo, Glycine max; conditions: Glycine max, pre-emergence
# Outline: as §1
# large (Lg) crabgrass = test: Test A preemergence; assay type: in vivo, Digitaria sanguinalis
# Outline: (§2)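 Compounds in non-phytotoxic solvent with surfactant applied as soil spray preemergence, or postemergence to plants 2-10 cm at one- to two-leaf stage, in loam/sand. After approximately 10 days in greenhouse, injury rated visually versus untreated controls, 0 (no effect) to 100 (complete control).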
# waterhemp = test: Test C preemergence; assay type: in vivo, Amaranthus rudis; conditions: Amaranthus tuberculatus, pre-emergence
# Outline: as §1
# wheat = test: Test A postemergence; assay type: in vivo, Triticum aestivum; conditions: Triticum aestivum, post-emergence, 240 h, 0 to 100 scale where 0 is no effect and 100 is complete control
# Outline: as §2
# velvetleaf [2] = test: Test C postemergence; assay type: in vivo, Abutilon theophrasti
# Outline: as §1
# ragweed [3] = test: Test C postemergence; assay type: in vivo, Ambrosia elatior
# Outline: as §1
# morningglory = test: Test A preemergence; assay type: in vivo, Ipomoea spp.
# Outline: as §2
# pigweed [4] = test: Test C postemergence; assay type: in vivo, Amaranthus retroflexus
# Outline: as §1
# pigweed [5] = test: Test A preemergence; assay type: in vivo, Amaranthus retroflexus
# Outline: as §2
# corn = test: Test A postemergence; assay type: in vivo, Zea mays; conditions: Zea mays, post-emergence, 240 h, 0 to 100 scale where 0 is no effect and 100 is complete control
# Outline: as §2
# galium = test: Test C postemergence; assay type: in vivo, Galium aparine; conditions: Galium, post-emergence
# Outline: as §1
# velvetleaf [6] = test: Test A preemergence; assay type: in vivo, Abutilon theophrasti
# Outline: as §2
# johnsongrass = test: Test C preemergence; assay type: in vivo, Sorghum halepense; conditions: Sorghum halepense, pre-emergence
# Outline: as §1
# [7] = 31 g ai/ha, postemergence, visual rating, scale 0 to 100 (0 no effect, 100 complete control), 13 to 15 days
smiles,measurement,setting,value
"FC(F)c1cccc(Oc2ncc(Cl)cn2)c1-n1cc(Br)cn1 [Compound 194, 2-[2-(4-bromo-1H-pyrazol-1-yl)-3-(difluoromethyl)phenoxy]-5-chloropyrimidine]",pest or weed control at 125 g/ha,"giant foxtail; 125 g ai/ha, preemergence, scale 0 (no effect) to 100 (complete control), read-out: Foxtail, Giant plant response rating",100%
same,pest or weed control at 250 g/ha,"giant foxtail; 250 g ai/ha, preemergence, scale 0 (no effect) to 100 (complete control), read-out: Foxtail, Giant plant response rating",100%
same,pest or weed control at 62 g/ha,"giant foxtail; Preemergence, 62 g ai/ha, scale 0 to 100, 0 no effect, 100 complete control, read-out: Plant response rating, Foxtail, Giant",90%
same,Oilseed Rape plant response rating,oilseed rape; [7],30
same,plant injury at 125 g/ha,"oilseed rape; Brassica napus, post-emergence, 125 g ai/ha, postemergence, visual rating, scale 0 to 100 (0 no effect, 100 complete control), read-out: Plant response rating, Oilseed Rape",85%
same,plant injury at 250 g/ha,"oilseed rape; Brassica napus, post-emergence, 250 g ai/ha, postemergence, read-out: Plant response rating (0 to 100), Oilseed Rape",90%
same,plant injury at 62 g/ha,"oilseed rape; Brassica napus, post-emergence, Postemergence, 62 g ai/ha, scale 0 to 100 (0 no effect, 100 complete control), 13 to 15 days, read-out: Plant response rating, Oilseed Rape",40%
same,pest or weed control at 125 g/ha,"ragweed [1]; 125 g ai/ha, preemergence, scale 0 (no effect) to 100 (complete control), read-out: Ragweed plant response rating",20%
same,pest or weed control at 250 g/ha,"ragweed [1]; 250 g ai/ha, preemergence, scale 0 (no effect) to 100 (complete control), read-out: Ragweed plant response rating",75%
same,pest or weed control at 62 g/ha,"ragweed [1]; Preemergence, 62 g ai/ha, scale 0 to 100, 0 no effect, 100 complete control, read-out: Plant response rating, Ragweed",10%
same,plant injury at 125 g/ha,"soybean; 125 g ai/ha, preemergence, scale 0 (no effect) to 100 (complete control), read-out: Soybean plant response rating",25%
same,plant injury at 250 g/ha,"soybean; 250 g ai/ha, preemergence, scale 0 (no effect) to 100 (complete control), read-out: Soybean plant response rating",45%
same,plant injury at 62 g/ha,"soybean; Preemergence, 62 g ai/ha, scale 0 to 100, 0 no effect, 100 complete control, read-out: Plant response rating, Soybean",20%
same,"Crabgrass, Large plant response rating (0 to 100 scale)",large (Lg) crabgrass; 125 g ai/ha,100
same,pest or weed control at 500 g/ha,"large (Lg) crabgrass; Digitaria sanguinalis, pre-emergence, 240 h, 500 g ai/ha, 0 to 100 scale where 0 is no effect and 100 is complete control, read-out: Crabgrass, Large plant response rating",100%
same,pest or weed control at 125 g/ha,"waterhemp; 125 g ai/ha, preemergence, scale 0 (no effect) to 100 (complete control), read-out: Waterhemp plant response rating",100%
same,pest or weed control at 250 g/ha,"waterhemp; 250 g ai/ha, preemergence, scale 0 (no effect) to 100 (complete control), read-out: Waterhemp plant response rating",100%
same,pest or weed control at 62 g/ha,"waterhemp; Preemergence, 62 g ai/ha, scale 0 to 100, 0 no effect, 100 complete control, read-out: Plant response rating, Waterhemp",100%
same,plant injury at 125 g/ha,"wheat; 125 g ai/ha, read-out: Wheat plant response rating",30%
same,plant injury at 500 g/ha,"wheat; 500 g ai/ha, read-out: Plant response rating, Wheat",60%
same,Velvetleaf plant response rating,velvetleaf [2]; [7],40
same,pest or weed control at 125 g/ha,"velvetleaf [2]; Abutilon theophrasti, post-emergence, 125 g ai/ha, postemergence, visual rating, scale 0 to 100 (0 no effect, 100 complete control), read-out: Plant response rating, Velvetleaf",70%
same,pest or weed control at 250 g/ha,"velvetleaf [2]; Abutilon theophrasti, post-emergence, 250 g ai/ha, postemergence, read-out: Plant response rating (0 to 100), Velvetleaf",75%
same,pest or weed control at 62 g/ha,"velvetleaf [2]; Abutilon theophrasti, post-emergence, Postemergence, 62 g ai/ha, scale 0 to 100 (0 no effect, 100 complete control), 13 to 15 days, read-out: Plant response rating, Velvetleaf",45%
same,Ragweed plant response rating,ragweed [3]; [7],15
same,pest or weed control at 125 g/ha,"ragweed [3]; Ambrosia artemisiifolia, post-emergence, 125 g ai/ha, postemergence, visual rating, scale 0 to 100 (0 no effect, 100 complete control), read-out: Plant response rating, Ragweed",50%
same,pest or weed control at 250 g/ha,"ragweed [3]; Ambrosia artemisiifolia, post-emergence, 250 g ai/ha, postemergence, read-out: Plant response rating (0 to 100), Ragweed",50%
same,pest or weed control at 62 g/ha,"ragweed [3]; Ambrosia artemisiifolia, post-emergence, Postemergence, 62 g ai/ha, scale 0 to 100 (0 no effect, 100 complete control), 13 to 15 days, read-out: Plant response rating, Ragweed",25%
same,Morningglory plant response rating (0 to 100 scale),morningglory; 125 g ai/ha,60
same,pest or weed control at 500 g/ha,"morningglory; Ipomoea, pre-emergence, 240 h, 500 g ai/ha, 0 to 100 scale where 0 is no effect and 100 is complete control, read-out: Morningglory plant response rating",100%
same,Pigweed plant response rating,pigweed [4]; [7],75
same,pest or weed control at 125 g/ha,"pigweed [4]; Amaranthus retroflexus, post-emergence, 125 g ai/ha, postemergence, visual rating, scale 0 to 100 (0 no effect, 100 complete control), read-out: Plant response rating, Pigweed",90%
same,pest or weed control at 250 g/ha,"pigweed [4]; Amaranthus retroflexus, post-emergence, 250 g ai/ha, postemergence, read-out: Plant response rating (0 to 100), Pigweed",95%
same,pest or weed control at 62 g/ha,"pigweed [4]; Amaranthus retroflexus, post-emergence, Postemergence, 62 g ai/ha, scale 0 to 100 (0 no effect, 100 complete control), 13 to 15 days, read-out: Plant response rating, Pigweed",75%
same,Pigweed plant response rating (0 to 100 scale),pigweed [5]; 125 g ai/ha,100
same,pest or weed control at 500 g/ha,"pigweed [5]; Amaranthus retroflexus, pre-emergence, 240 h, 500 g ai/ha, 0 to 100 scale where 0 is no effect and 100 is complete control, read-out: Pigweed plant response rating",100%
same,plant injury at 125 g/ha,"corn; 125 g ai/ha, read-out: Corn plant response rating",30%
same,"Corn plant response rating (crop injury, 0 = no effect, 100 = complete kill) at 500 g/ha",corn; 500 g ai/ha,60%
same,pest or weed control at 31 g/ha,"galium; 31 g ai/ha, postemergence, visual rating, scale 0 to 100 (0 no effect, 100 complete control), 13 to 15 days, read-out: Galium plant response rating",60%
same,pest or weed control at 125 g/ha,"galium; 125 g ai/ha, postemergence, visual rating, scale 0 to 100 (0 no effect, 100 complete control), read-out: Plant response rating, Galium",85%
same,pest or weed control at 250 g/ha,"galium; 250 g ai/ha, postemergence, read-out: Plant response rating (0 to 100), Galium",90%
same,pest or weed control at 62 g/ha,"galium; Postemergence, 62 g ai/ha, scale 0 to 100 (0 no effect, 100 complete control), 13 to 15 days, read-out: Plant response rating, Galium",65%
same,Velvetleaf plant response rating (0 to 100 scale),velvetleaf [6]; 125 g ai/ha,80
same,pest or weed control at 500 g/ha,"velvetleaf [6]; Abutilon theophrasti, pre-emergence, 240 h, 500 g ai/ha, 0 to 100 scale where 0 is no effect and 100 is complete control, read-out: Velvetleaf plant response rating",100%
same,pest or weed control at 125 g/ha,"johnsongrass; 125 g ai/ha, preemergence, scale 0 (no effect) to 100 (complete control), read-out: Johnsongrass plant response rating",80%
same,pest or weed control at 250 g/ha,"johnsongrass; 250 g ai/ha, preemergence, scale 0 (no effect) to 100 (complete control), read-out: Johnsongrass plant response rating",95%
same,pest or weed control at 62 g/ha,"johnsongrass; Preemergence, 62 g ai/ha, scale 0 to 100, 0 no effect, 100 complete control, read-out: Plant response rating, Johnsongrass",25%
